Experimental data as given in patent publication US6355799B1, “Substituted benzene compounds, process for their preparation, and herbicidal and defoliant compositions containing them” (ISK Americas Incorporated, priority 1997, dated 2002).

What was measured:
Assay type in all cases: in vivo
[1] = system: field corn (Zea mays L., var. Dekalb 535, CORN); test: Post-emerge test, crop safety; conditions: post-emerge, 14 days after application, rating scale 0-100
Method in brief: (§1)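 Fourteen days after spraying, crop and weed injury was graded visually from 0, no effect, to 100, every plant dead. Test substances were dissolved in acetone and applied at 15–1000 g ai/ha with a flat-fan nozzle. Application was either pre-emergence, one day after sowing, or post-emergence at the 2–3 leaf stage.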

[2] = system: upland rice (Oryza sp., var. Tebonnet, RICE); test: Post-emerge test, crop safety; conditions: post-emerge, 14 days after application, rating scale 0-100
Method in brief: as §1

[3] = system: field corn (Zea mays L., var. Dekalb 535, CORN); test: Pre-emerge test, crop safety; conditions: for Pre-emerge Herbicidal Activity CORN: crop damage rating 0-100, 14 days after application; for phytotoxicity rating CORN (crop damage): pre-emerge, 14 days after application, scale 0-100
Method in brief: (§2)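 Rating: 0–100 visual injury, 14 DAA. Application: acetone, 187 l/ha, 15–1000 g ai/ha, flat-fan track sprayer with nozzle 40–45 cm above soil or canopy. Post-emerge runs used 0.25% v/v surfactant on 2–3 leaf plants.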

[4] = system: upland rice (Oryza sp., var. Tebonnet, RICE); test: Pre-emerge test, crop safety; conditions: for Pre-emerge Herbicidal Activity RICE: crop damage rating 0-100, 14 days after application; for phytotoxicity rating RICE (crop damage): pre-emerge, 14 days after application, scale 0-100
Method in brief: as §2

[5] = system: johnsongrass (Sorghum halepense, SORHA); test: Post-emerge test, greenhouse herbicide activity screening; conditions: post-emerge, 14 days after application, rating scale 0-100
Method in brief: (§3)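 Visual ratings on a 0-100 scale (0 no damage, 100 all plants dead) were taken at 14 days after treatment. Rates of 15-1000 g ai/ha in acetone, 187 l/ha, were sprayed onto soil one day after planting (pre-emerge) or onto 2-3 leaf plants with 0.25% v/v surfactant (post-emerge).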

[6] = system: lambsquarters (Chenopodium album, CHEAL); test: as above; conditions: post-emerge, 14 days after application, rating scale 0-100
Method in brief: as §3

[7] = system: large crabgrass (Digitaria sanguinalis, DIGSA); test: as above; conditions: post-emerge, 14 days after application, rating scale 0-100
Method in brief: as §3

[8] = system: redroot pigweed (Amaranthus retroflexus, AMARE); test: as above; conditions: post-emerge, 14 days after application
Method in brief: as §3

[9] = system: green foxtail (Setaria viridis, SETVI); test: as above; conditions: post-emerge, 14 days after application, rating scale 0-100
Method in brief: as §3

[10] = system: velvetleaf (Abutilon theophrasti, ABUTH); test: as above; conditions: post-emerge, 14 days after application, rating scale 0-100
Method in brief: as §3

[11] = system: ivyleaf morningglory (Ipomoea hederacea, IPOHE); test: as above; conditions: post-emerge, 14 days after application, rating scale 0-100
Method in brief: as §3

[12] = system: sicklepod (Cassia obtusifolia, CASOB); test: as above; conditions: post-emerge, 14 days after application, rating scale 0-100
Method in brief: as §3

[13] = system: barnyardgrass (Echinochloa crus-galli, ECHCG); test: as above; conditions: post-emerge, 14 days after application, rating scale 0-100
Method in brief: as §3

[14] = system: redroot pigweed (Amaranthus retroflexus, AMARE); test: Pre-emerge test, greenhouse herbicide activity screening; conditions: for Pre-emerge Herbicidal Activity AMARE: phytotoxicity rating 0-100, 14 days after application; for phytotoxicity rating AMARE: pre-emerge, 14 days after application, scale 0-100
Method in brief: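 Compounds in acetone were track-sprayed at 187 l/ha, 15–1000 g ai/ha, onto sandy loam pots. Pre-emerge seeds were sown one day before spraying, with surface watering afterwards. Post-emerge plants were at the 2–3 leaf stage and sprayed with 0.25% v/v non-ionic surfactant. Injury was rated 0–100 at 14 days.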

[15] = system: johnsongrass (Sorghum halepense, SORHA); test: as above; conditions: for Pre-emerge Herbicidal Activity SORHA: phytotoxicity rating 0-100, 14 days after application; for phytotoxicity rating SORHA: pre-emerge, 14 days after application, scale 0-100
Method in brief: as §1

[16] = system: lambsquarters (Chenopodium album, CHEAL); test: as above; conditions: for Pre-emerge Herbicidal Activity CHEAL: phytotoxicity rating 0-100, 14 days after application; for phytotoxicity rating CHEAL: pre-emerge, 14 days after application, scale 0-100
Method in brief: as §1

[17] = system: large crabgrass (Digitaria sanguinalis, DIGSA); test: as above; conditions: for Pre-emerge Herbicidal Activity DIGSA: phytotoxicity rating 0-100, 14 days after application; for phytotoxicity rating DIGSA: pre-emerge, 14 days after application, scale 0-100
Method in brief: as §1

[18] = system: green foxtail (Setaria viridis, SETVI); test: as above; conditions: for Pre-emerge Herbicidal Activity SETVI: phytotoxicity rating 0-100, 14 days after application; for phytotoxicity rating SETVI: pre-emerge, 14 days after application, scale 0-100
Method in brief: as §1

[19] = system: velvetleaf (Abutilon theophrasti, ABUTH); test: as above; conditions: for Pre-emerge Herbicidal Activity ABUTH: phytotoxicity rating 0-100, 14 days after application; for phytotoxicity rating ABUTH: pre-emerge, 14 days after application, scale 0-100
Method in brief: as §1

[20] = system: ivyleaf morningglory (Ipomoea hederacea, IPOHE); test: as above; conditions: for Pre-emerge Herbicidal Activity IPOHE: phytotoxicity rating 0-100, 14 days after application; for phytotoxicity rating IPOHE: pre-emerge, 14 days after application, scale 0-100
Method in brief: as §1

[21] = system: sicklepod (Cassia obtusifolia, CASOB); test: as above; conditions: for Pre-emerge Herbicidal Activity CASOB: phytotoxicity rating 0-100, 14 days after application; for phytotoxicity rating CASOB: pre-emerge, 14 days after application, scale 0-100
Method in brief: as §1

[22] = system: barnyardgrass (Echinochloa crus-galli, ECHCG); test: as above; conditions: for Pre-emerge Herbicidal Activity ECHCG: phytotoxicity rating 0-100, 14 days after application; for phytotoxicity rating ECHCG: pre-emerge, 14 days after application, scale 0-100
Method in brief: as §1

[23] = system: common ragweed (Ambrosia artemisizfolia L., AMBEL); test: as above; conditions: for Pre-emerge Herbicidal Activity AMBEL: phytotoxicity rating 0-100, 14 days after application; for phytotoxicity rating AMBEL: pre-emerge, 14 days after application, scale 0-100
Method in brief: as §1

[24] = 250 g ai/ha, rating scale 0-100

## CCCCCC(=O)Nc1c(OC)c(Cl)cc(F)c1-n1c(=O)cc(C(F)(F)F)n(C)c1=O [2-198]
[1]; 63 g ai/ha
  phytotoxicity rating CORN (crop damage): 10
[1]; 250 g ai/ha
  phytotoxicity rating CORN (crop damage): 40
[2]; 63 g ai/ha
  phytotoxicity rating RICE (crop damage): 10
[2]; 250 g ai/ha
  phytotoxicity rating RICE (crop damage): 30
[3]; 63 g ai/ha
  Pre-emerge Herbicidal Activity CORN: 50
[3]; 250 g ai/ha
  Pre-emerge Herbicidal Activity CORN: 90
[4]; 63 g ai/ha
  Pre-emerge Herbicidal Activity RICE: 30
[4]; 250 g ai/ha
  Pre-emerge Herbicidal Activity RICE: 80
[5]; 63 g ai/ha
  phytotoxicity rating SORHA: 0
[5]; 250 g ai/ha
  phytotoxicity rating SORHA: 50
[6]; 63 g ai/ha
  phytotoxicity rating CHEAL: 80
[6]; 250 g ai/ha
  phytotoxicity rating CHEAL: 90
[7]; 63 g ai/ha
  phytotoxicity rating DIGSA: 10
[7]; 250 g ai/ha
  phytotoxicity rating DIGSA: 10
[8]; 63 g ai/ha, rating scale 0-100 (0 no damage, 100 complete death)
  phytotoxicity rating AMARE: 80
[8]; [24]
  phytotoxicity rating AMARE: 95
[9]; 63 g ai/ha
  phytotoxicity rating SETVI: 10
[9]; 250 g ai/ha
  phytotoxicity rating SETVI: 10
[10]; 63 g ai/ha
  phytotoxicity rating ABUTH: 80
[10]; 250 g ai/ha
  phytotoxicity rating ABUTH: 100
[11]; 63 g ai/ha
  phytotoxicity rating IPOHE: 80
[11]; 250 g ai/ha
  phytotoxicity rating IPOHE: 100
[12]; 63 g ai/ha
  phytotoxicity rating CASOB: 50
[12]; 250 g ai/ha
  phytotoxicity rating CASOB: 30
[13]; 63 g ai/ha
  phytotoxicity rating ECHCG: 5
[13]; 250 g ai/ha
  phytotoxicity rating ECHCG: 5
[14]; 63 g ai/ha
  Pre-emerge Herbicidal Activity AMARE: 100
[14]; 250 g ai/ha
  Pre-emerge Herbicidal Activity AMARE: 100
[15]; 63 g ai/ha
  Pre-emerge Herbicidal Activity SORHA: 50
[15]; 250 g ai/ha
  Pre-emerge Herbicidal Activity SORHA: 99
[16]; 63 g ai/ha
  Pre-emerge Herbicidal Activity CHEAL: 100
[16]; 250 g ai/ha
  Pre-emerge Herbicidal Activity CHEAL: 100
[17]; 63 g ai/ha
  Pre-emerge Herbicidal Activity DIGSA: 100
[17]; 250 g ai/ha
  Pre-emerge Herbicidal Activity DIGSA: 100
[18]; 63 g ai/ha
  Pre-emerge Herbicidal Activity SETVI: 90
[18]; 250 g ai/ha
  Pre-emerge Herbicidal Activity SETVI: 100
[19]; 63 g ai/ha
  Pre-emerge Herbicidal Activity ABUTH: 100
[19]; 250 g ai/ha
  Pre-emerge Herbicidal Activity ABUTH: 100
[20]; 63 g ai/ha
  Pre-emerge Herbicidal Activity IPOHE: 100
[20]; 250 g ai/ha
  Pre-emerge Herbicidal Activity IPOHE: 100
[21]; 63 g ai/ha
  Pre-emerge Herbicidal Activity CASOB: 50
[21]; 250 g ai/ha
  Pre-emerge Herbicidal Activity CASOB: 100
[22]; 63 g ai/ha
  Pre-emerge Herbicidal Activity ECHCG: 50
[22]; 250 g ai/ha
  Pre-emerge Herbicidal Activity ECHCG: 100
[23]; 63 g ai/ha
  Pre-emerge Herbicidal Activity AMBEL: 100
[23]; 250 g ai/ha
  Pre-emerge Herbicidal Activity AMBEL: 100

## CCCSCC(=O)Nc1c(OC)c(Cl)cc(F)c1-n1c(=O)cc(C(F)(F)F)n(C)c1=O [2-174]
[1]; 63 g ai/ha
  CORN phytotoxicity rating (crop damage): 10
[1]; 250 g ai/ha
  CORN phytotoxicity rating (crop damage): 25
[2]; 63 g ai/ha
  RICE phytotoxicity rating (crop damage): 20
[2]; 250 g ai/ha
  RICE phytotoxicity rating (crop damage): 20
[3]; 63 g ai/ha
  phytotoxicity rating CORN (crop damage): 0
[3]; 250 g ai/ha
  phytotoxicity rating CORN (crop damage): 60
[4]; 63 g ai/ha
  phytotoxicity rating RICE (crop damage): 10
[4]; 250 g ai/ha
  phytotoxicity rating RICE (crop damage): 50
[5]; 63 g ai/ha
  SORHA phytotoxicity rating: 0
[5]; 250 g ai/ha
  SORHA phytotoxicity rating: 0
[6]; 63 g ai/ha
  CHEAL phytotoxicity rating: 55
[6]; 250 g ai/ha
  CHEAL phytotoxicity rating: 85
[7]; 63 g ai/ha
  DIGSA phytotoxicity rating: 0
[7]; 250 g ai/ha
  DIGSA phytotoxicity rating: 10
[8]; 63 g ai/ha, rating scale 0-100
  AMARE phytotoxicity rating: 60
[8]; [24]
  AMARE phytotoxicity rating: 60
[9]; 63 g ai/ha
  SETVI phytotoxicity rating: 10
[9]; 250 g ai/ha
  SETVI phytotoxicity rating: 10
[10]; 63 g ai/ha
  ABUTH phytotoxicity rating: 60
[10]; 250 g ai/ha
  ABUTH phytotoxicity rating: 80
[11]; 63 g ai/ha
  IPOHE phytotoxicity rating: 70
[11]; 250 g ai/ha
  IPOHE phytotoxicity rating: 80
[12]; 63 g ai/ha
  CASOB phytotoxicity rating: 60
[12]; 250 g ai/ha
  CASOB phytotoxicity rating: 75
[13]; 63 g ai/ha
  ECHCG phytotoxicity rating: 0
[13]; 250 g ai/ha
  ECHCG phytotoxicity rating: 0
[14]; 63 g ai/ha
  phytotoxicity rating AMARE: 90
[14]; 250 g ai/ha
  phytotoxicity rating AMARE: 100
[15]; 63 g ai/ha
  phytotoxicity rating SORHA: 10
[15]; 250 g ai/ha
  phytotoxicity rating SORHA: 90
[16]; 63 g ai/ha
  phytotoxicity rating CHEAL: 80
[16]; 250 g ai/ha
  phytotoxicity rating CHEAL: 100
[17]; 63 g ai/ha
  phytotoxicity rating DIGSA: 20
[17]; 250 g ai/ha
  phytotoxicity rating DIGSA: 70
[18]; 63 g ai/ha
  phytotoxicity rating SETVI: 20
[18]; 250 g ai/ha
  phytotoxicity rating SETVI: 90
[19]; 63 g ai/ha
  phytotoxicity rating ABUTH: 100
[19]; 250 g ai/ha
  phytotoxicity rating ABUTH: 100
[20]; 63 g ai/ha
  phytotoxicity rating IPOHE: 30
[20]; 250 g ai/ha
  phytotoxicity rating IPOHE: 100
[21]; 63 g ai/ha
  phytotoxicity rating CASOB: 40
[21]; 250 g ai/ha
  phytotoxicity rating CASOB: 80
[22]; 63 g ai/ha
  phytotoxicity rating ECHCG: 0
[22]; 250 g ai/ha
  phytotoxicity rating ECHCG: 60
[23]; 63 g ai/ha
  phytotoxicity rating AMBEL: 10
[23]; 250 g ai/ha
  phytotoxicity rating AMBEL: 90
